Measurements taken from the RepoRT retention time repository.

Test: Agilent ZORBAX 300 SB-C18, 150 × 1 mm, 3.5 µm; A: water + 0.01% heptafluorobutyric acid; B: acetonitrile + 0.01% heptafluorobutyric acid; gradient (min/%B) 0/0 100/90
Details: stereoisomer not certain

Row | LC retention time [min] | SMILES
1 | 2.18 | O=C(O)c1cc(=O)n(-c2ccc(S(=O)(=O)O)cc2)[nH]1
2 | 10.8 | CCN1CN(Cc2ccccc2)CNC1=S
3 | 11.4 | O=c1[nH]c(N=NCc2ccccc2O)nnc1Cc1ccccc1
4 | 2.05 | O=C1NCCO1
5 | 9.57 | Nc1ccc2oc3c(c2c1)CCCC3
6 | 13.9 | CC1=NC(=O)NC(c2ccccc2)C1C(=O)OC(C)C(C)(C)C (stereo not given)
7 | 4 | COC(=O)C(N)CO (stereo not given)
8 | 11.6 | O=C(O)c1ccc2[nH]c3c(c2c1)CCCC3
9 | 10 | COc1ccc(C=NCCC2=CCCCC2)cc1OC
10 | 9.54 | O=C(CN1CCN(C(=O)CNC2CCCCC2)CC1)NC1CCCCC1
11 | 10.2 | CCn1c(=O)n(CC)c2cc(C=O)ccc21
12 | 7.62 | COC(=O)C(N)c1ccccc1 (stereo not given)
13 | 7.28 | NC(=O)C1(N2CCCCC2)CCN(C(=O)CN2CCNCC2)CC1
14 | 11.7 | CNCCC=C1c2ccccc2CCc2ccccc21
15 | 1.78 | NC(=O)c1ccc[n+](C2OC(COP(=O)(O)O)C(O)C2O)c1 (stereo not given)
16 | 8.71 | CN(C)CCCNCc1ccc2[nH]c3c(c2c1)CCCC3
17 | 9.84 | CN(C)c1ccc(C=NNC(N)=S)cc1
18 | 8.34 | Cc1ccc(NC(=O)CCN2CCN(C)CC2)cc1
19 | 16.1 | Cc1ccc(C=CC(=O)c2ccccc2O)cc1
20 | 12.2 | CCCCn1c2ccccc2n2cc(C(C)(C)C)nc12
21 | 9.65 | Cc1cccc(OCC(O)CNC(C)C)c1 (stereo not given)
22 | 7.37 | NCCCCCCNCCCCCCN

Row | LC retention time [min] | SMILES
23 | 15.3 | CCCCN(CCCC)C(=O)c1ccc(OC(C)=O)cc1
24 | 11.9 | c1ccc(Nc2nc(-c3ccccc3)nc3ccccc23)cc1
25 | 12 | C1CCC(OCCNCCOC2CCCCC2)CC1
26 | 6.14 | Cc1cc2[nH]c(=O)[nH]c2cc1N
27 | 7.64 | CC(N)CCCC(C)(C)O (stereo not given)
28 | 7.24 | O=c1[nH]c2ccccc2[nH]c1=S
29 | 12.6 | COc1ccc(N(C)C(=O)c2cccc(C(=O)N(C)c3ccc(OC)cc3)c2)cc1
30 | 14.3 | COc1cccc(C(=O)N(c2ccccc2)C2CC(C)N(C(C)=O)c3ccccc32)c1 (stereo not given)
31 | 13.7 | Cc1ccc(-c2nc(-c3c[nH]c4ccccc34)[nH]c2-c2ccc(C)cc2)cc1
32 | 8.89 | COc1ccccc1OCC(=O)N1CCNC1=O
33 | 10.7 | CC(C)=NNc1nccc2ccccc12
34 | 18.1 | CCCCc1ccc(-n2c(CCC(=O)O)ccc2-c2ccccc2)cc1
35 | 5.64 | OCc1cccc(CO)n1
36 | 5.87 | Cc1ncnc2nc[nH]c12
37 | 8.21 | CCn1cc(-c2ccn[nH]2)c(C)n1
38 | 12.9 | CCCCNC(=O)c1c[nH]c2ccccc2c1=O
39 | 8.52 | Cc1ccc(-n2ccnc2)cc1
40 | 7.1 | CC1=NCC(=O)N1c1cccc(N)c1
41 | 8.19 | c1cncc(-c2nc3ccccc3[nH]2)c1
42 | 17.9 | Cc1ccc(-c2nc3ccccc3s2)cc1
43 | 17 | COc1ccc2c(c1C)CCC1=C(C)C(=O)CCC12C (stereo not given)
44 | 8.14 | O=C(Nc1cccnc1)c1ccccn1

Row | LC retention time [min] | SMILES
45 | 6.82 | CC(=O)Nc1ccccc1N
46 | 9.12 | COc1ccccc1-n1c(=O)n2n(c1=O)CCCC2
47 | 9.46 | CCC(=O)Nc1ccc(N2CCN(C(=O)C(C)C)CC2)cc1
48 | 8.78 | CC1(C)CC(NC(=O)NC2CCCCC2)CC(C)(C)N1
49 | 14.1 | CC(C)CC1(C)NC(=S)N(c2ccccc2)N1 (stereo not given)
50 | 8.76 | S=c1nc(C2CCCCC2)[nH][nH]1
51 | 11.6 | Nc1cccc2oc3ccccc3c12
52 | 12 | c1ccc2nc3c(nc2c1)[nH]c1ccccc13
53 | 7.67 | C=CC[n+]1ccc2ccccc2c1
54 | 11.2 | Nc1ccc2nc(-c3ccccc3)oc(=O)c2c1
55 | 9.23 | CC(C)[N+]1(C)C2CCC1CC(OC(=O)C(CO)c1ccccc1)C2 (stereo not given)
56 | 12 | CCN(CC)C(=O)c1cc(C)nc2c1c(=O)n(CC(=O)Nc1ccccc1)c(=O)n2C
57 | 10.1 | COc1ccc(CN(CCN(C)C)c2ccccn2)cc1
58 | 12.2 | C#CC(C)(CC)NC(=O)Cc1ccccc1 (stereo not given)
59 | 6.42 | CC(=O)N1C(=O)N(C(C)=O)C(O)C1O (stereo not given)
60 | 7.87 | NCc1nccc2ccccc12
61 | 6.98 | NCCN1CCCCC1
62 | 14 | CCCCCCCCCCCCCN
63 | 5.58 | CC(=O)C(C)(C)N
64 | 12.1 | COc1cccc2c1NC(CCc1ccccc1N)CC2 (stereo not given)
65 | 14.8 | OCCCc1cn(-c2ccccc2)c2ccccc12
66 | 9.25 | CC(=O)c1c[nH]c2ccccc12

Row | LC retention time [min] | SMILES
67 | 4.4 | Nc1ccn(CC(O)CO)c(=O)n1 (stereo not given)
68 | 8.55 | CN1C(=O)C(CC(=O)NC2CCCCC2)N(C)C1=O (stereo not given)
69 | 8.38 | Cn1c2nc(=O)[nH]c(=O)c-2nc2ccccc21
70 | 3.97 | O=c1[nH][nH]c(=O)c2nccnc12
71 | 8.93 | COC(=O)Cn1c(=O)n(C)c2c(=O)n(C)c(=O)n(C)c21
72 | 6.71 | CC(C)CC(N)C(N)=O (stereo not given)
73 | 14.8 | CC(=O)C1CCC2C3CC(C)C4=CC(=O)CCC4(C)C3C(O)CC12C (stereo not given)
74 | 12.4 | O=C1CC(N2CCN(C(c3ccccc3)c3ccccc3)CC2)C(=O)N1c1cccc2ccccc12 (stereo not given)
75 | 8.65 | Cc1cc(C)c2cccc(C)c2n1
76 | 11.3 | CCCCCn1c(CCC)nc2ccccc21
77 | 5.97 | Cc1cc(=O)[nH]c(N)n1
78 | 8.45 | c1ccc(Cc2nn[nH]n2)cc1
79 | 8.03 | CC1(C)CC(N2CN(C3CCCCC3)CC2=O)CC(C)(C)N1
80 | 12.4 | O=C1CC(N2CCN(C3CC(=O)N(CCc4ccccc4)C3=O)CC2)C(=O)N1CCc1ccccc1 (stereo not given)
81 | 7.98 | C=CCN(CC=C)CC=C
82 | 8.75 | CC(C)NCC(O)COc1cccc2[nH]ccc12 (stereo not given)
83 | 11.7 | c1ccc(CNCCc2csc3c2CCCC3)cc1
84 | 8.94 | Cc1[nH]c2c(c1C)C(=O)CCC2
85 | 8.31 | CCCCCC(N)=O
86 | 8.47 | COCCNC(=O)Cn1c(=O)n(C)c2ccccc21

Row | SMILES | LC retention time [min]
87 | Cc1ccccc1-n1c(O)c(C=C2C=Nc3ccccc32)c(=O)n(-c2ccccc2C)c1=O | 15.9
88 | C1CCC(NC2CCCCC2)CC1 | 9.69
89 | NCCc1cccs1 | 7.47
90 | CN1C2CC(OC(=O)C(CO)c3ccccc3)CC1C1OC12 (stereo not given) | 8.47
91 | Cc1cccc(Cc2cnc[nH]2)c1C | 9.65
92 | OCCNC1CCCCC1 | 7.24
93 | Cc1ccc(N2C(=O)NC(=O)C(=Cc3cc(C)n(-c4ccccc4)c3C)C2=O)cc1 | 15
94 | COC(=O)C(c1ccccc1)C1CCCCN1 (stereo not given) | 9.49
95 | CC(C)NC(C)C | 7.12
